Results published in ChEMBL document CHEMBL2440076, “New triarylpyrazoles as broad-spectrum anticancer agents: design, synthesis, and biological evaluation” (Eur J Med Chem, 2013).

Experiments:
Assay type in all cases: functional
LOX IMVI [1] = test: Growth inhibition of human LOXIMVI cells assessed as cell growth at 5X10'-5 M after 48 hrs by sulforhodamine B assay; settings: read-out: Activity
SF-539 [2] = test: Growth inhibition of human SF539 cells assessed as cell growth at 5X10'-5 M after 48 hrs by sulforhodamine B assay; settings: SF-539, 48 h, read-out: Activity
MOLT-4 [3] = test: Growth inhibition of human MOLT4 cells assessed as cell growth at 5X10'-5 M after 48 hrs by sulforhodamine B assay; settings: MOLT-4, 48 h, read-out: Activity
T47D = test: Growth inhibition of human T47D cells assessed as cell growth at 5X10'-6 M after 48 hrs by sulforhodamine B assay; settings: read-out: Activity
RXF 393 = test: Growth inhibition of human RXF393 cells assessed as cell growth at 5X10'-6 M after 48 hrs by sulforhodamine B assay; settings: RXF 393, 48 h, read-out: Activity
ACHN [4] = test: Growth inhibition of human ACHN cells assessed as cell growth at 5X10'-6 M after 48 hrs by sulforhodamine B assay; settings: read-out: Activity
IGROV-1 [5] = test: Growth inhibition of human IGROV1 cells assessed as cell growth at 5X10'-6 M after 48 hrs by sulforhodamine B assay; settings: IGROV-1, 48 h, read-out: Activity
SK-MEL-28 [6] = test: Growth inhibition of human SK-MEL-28 cells assessed as cell growth at 5X10'-6 M after 48 hrs by sulforhodamine B assay; settings: SK-MEL-28, 48 h, read-out: Activity
Malme-3M [7] = test: Growth inhibition of human MALME-3M cells assessed as cell growth at 5X10'-6 M after 48 hrs by sulforhodamine B assay; settings: read-out: Activity
SR [8] = test: Growth inhibition of human SR cells assessed as cell growth at 5X10'-9 M after 48 hrs by sulforhodamine B assay; settings: read-out: Activity
LOX IMVI [9] = test: Growth inhibition of human LOXIMVI cells assessed as cell growth at 5X10'-6 M after 48 hrs by sulforhodamine B assay; settings: read-out: Activity
SNB-19 = test: Growth inhibition of human SNB19 cells assessed as cell growth at 5X10'-6 M after 48 hrs by sulforhodamine B assay; settings: SNB-19, 48 h, read-out: Activity
[10] = Growth inhibition of human HCC2998 cells assessed as cell growth at 5X10'-6 M after 48 hrs by sulforhodamine B assay; settings: HCC 2998, 48 h, read-out: Activity
SR [11] = test: Growth inhibition of human SR cells assessed as cell growth at 5X10'-6 M after 48 hrs by sulforhodamine B assay; settings: read-out: Activity
PC-3 = test: Growth inhibition of human PC3 cells assessed as cell growth at 5X10'-7 M after 48 hrs by sulforhodamine B assay; settings: PC-3, 48 h, read-out: Activity
SNB-75 [12] = test: Growth inhibition of human SNB75 cells assessed as cell growth at 5X10'-7 M after 48 hrs by sulforhodamine B assay; settings: SNB-75, 48 h, read-out: Activity
HCT-15 [13] = test: Growth inhibition of human HCT15 cells assessed as cell growth at 5X10'-7 M after 48 hrs by sulforhodamine B assay; settings: HCT-15, 48 h, read-out: Activity
HOP-92 = test: Growth inhibition of human HOP92 cells assessed as cell growth at 5X10'-7 M after 48 hrs by sulforhodamine B assay; settings: HOP-92, 48 h, read-out: Activity
[14] = Growth inhibition of human Hs 578T cells assessed as cell growth at 5X10'-8 M after 48 hrs by sulforhodamine B assay; settings: read-out: Activity
SN12C = test: Growth inhibition of human SN12C cells assessed as cell growth at 5X10'-8 M after 48 hrs by sulforhodamine B assay; settings: read-out: Activity
[15] = Growth inhibition of human NCI-ADR-RES cells assessed as cell growth at 5X10'-8 M after 48 hrs by sulforhodamine B assay; settings: read-out: Activity
OVCAR-5 = test: Growth inhibition of human OVCAR5 cells assessed as cell growth at 5X10'-8 M after 48 hrs by sulforhodamine B assay; settings: OVCAR-5, 48 h, read-out: Activity
OVCAR-3 [16] = test: Growth inhibition of human OVCAR3 cells assessed as cell growth at 5X10'-8 M after 48 hrs by sulforhodamine B assay; settings: OVCAR-3, 48 h, read-out: Activity
UACC-257 = test: Growth inhibition of human UACC257 cells assessed as cell growth at 5X10'-8 M after 48 hrs by sulforhodamine B assay; settings: UACC-257, 48 h, read-out: Activity
SF-539 [17] = test: Growth inhibition of human SF539 cells assessed as cell growth at 5X10'-8 M after 48 hrs by sulforhodamine B assay; settings: SF-539, 48 h, read-out: Activity
TK-10 = test: Growth inhibition of human TK10 cells assessed as cell growth at 5X10'-5 M after 48 hrs by sulforhodamine B assay; settings: TK-10, 48 h, read-out: Activity
OVCAR-3 [18] = test: Growth inhibition of human OVCAR3 cells assessed as cell growth at 5X10'-5 M after 48 hrs by sulforhodamine B assay; settings: OVCAR-3, 48 h, read-out: Activity
SK-MEL-28 [19] = test: Growth inhibition of human SK-MEL-28 cells assessed as cell growth at 5X10'-5 M after 48 hrs by sulforhodamine B assay; settings: SK-MEL-28, 48 h, read-out: Activity
HCT-15 [20] = test: Growth inhibition of human HCT15 cells assessed as cell growth at 5X10'-8 M after 48 hrs by sulforhodamine B assay; settings: HCT-15, 48 h, read-out: Activity
NCI-H23 = test: Growth inhibition of human NCI-H23 cells assessed as cell growth at 5X10'-8 M after 48 hrs by sulforhodamine B assay; settings: NCI-H23, 48 h, read-out: Activity
HOP-62 = test: Growth inhibition of human HOP62 cells assessed as cell growth at 5X10'-8 M after 48 hrs by sulforhodamine B assay; settings: HOP-62, 48 h, read-out: Activity
SR [21] = test: Growth inhibition of human SR cells assessed as cell growth at 5X10'-8 M after 48 hrs by sulforhodamine B assay; settings: read-out: Activity
MOLT-4 [22] = test: Growth inhibition of human MOLT4 cells assessed as cell growth at 5X10'-8 M after 48 hrs by sulforhodamine B assay; settings: MOLT-4, 48 h, read-out: Activity
MCF7 = test: Growth inhibition of human MCF7 cells assessed as cell growth at 5X10'-9 M after 48 hrs by sulforhodamine B assay; settings: MCF7, 48 h, read-out: Activity
UO-31 = test: Growth inhibition of human UO31 cells assessed as cell growth at 5X10'-9 M after 48 hrs by sulforhodamine B assay; settings: UO-31, 48 h, read-out: Activity
ACHN [23] = test: Growth inhibition of human ACHN cells assessed as cell growth at 5X10'-9 M after 48 hrs by sulforhodamine B assay; settings: read-out: Activity
IGROV-1 [24] = test: Growth inhibition of human IGROV1 cells assessed as cell growth at 5X10'-9 M after 48 hrs by sulforhodamine B assay; settings: IGROV-1, 48 h, read-out: Activity
Malme-3M [25] = test: Growth inhibition of human MALME-3M cells assessed as cell growth at 5X10'-9 M after 48 hrs by sulforhodamine B assay; settings: read-out: Activity
SNB-75 [26] = test: Growth inhibition of human SNB75 cells assessed as cell growth at 5X10'-9 M after 48 hrs by sulforhodamine B assay; settings: SNB-75, 48 h, read-out: Activity

COc1cc(-c2nn(-c3cccc(NC(=O)Nc4cccc(C(F)(F)F)c4)c3)cc2-c2ccncc2)ccc1Cl
growth at 50 µM (LOX IMVI [1]): -86%
growth at 50 µM (SF-539 [2]): -58%
growth at 50 µM (MOLT-4 [3]): -17%
growth at 5 µM (T47D): 18%
growth at 5 µM (RXF 393): -52%
growth at 5 µM (ACHN [4]): -8%
growth at 5 µM (IGROV-1 [5]): -22%
growth at 5 µM (SK-MEL-28 [6]): -18%
growth at 5 µM (Malme-3M [7]): -44%
growth at 0.005 µM (SR [8]): 93%
growth at 5 µM (LOX IMVI [9]): -75%
growth at 5 µM (SNB-19): -8%
growth at 5 µM [10]: -23%
growth at 5 µM (SR [11]): -24%
growth at 0.5 µM (PC-3): 44%
growth at 0.5 µM (SNB-75 [12]): 81%
growth at 0.5 µM (HCT-15 [13]): 66%
growth at 0.5 µM (HOP-92): 55%
growth at 0.05 µM [14]: 96%
growth at 0.05 µM (SN12C): 97%
growth at 0.05 µM [15]: 97%
growth at 0.05 µM (OVCAR-5): 86%
growth at 0.05 µM (OVCAR-3 [16]): 102%
growth at 0.05 µM (UACC-257): 98%
growth at 0.05 µM (SF-539 [17]): 94%
growth at 50 µM (TK-10): -7%
growth at 50 µM (OVCAR-3 [18]): -54%
growth at 50 µM (SK-MEL-28 [19]): -69%
growth at 0.05 µM (HCT-15 [20]): 94%
growth at 0.05 µM (NCI-H23): 95%
growth at 0.05 µM (HOP-62): 95%
growth at 0.05 µM (SR [21]): 93%
growth at 0.05 µM (MOLT-4 [22]): 92%
growth at 0.005 µM (MCF7): 94%
growth at 0.005 µM (UO-31): 88%
growth at 0.005 µM (ACHN [23]): 104%
growth at 0.005 µM (IGROV-1 [24]): 100%
growth at 0.005 µM (Malme-3M [25]): 86%
growth at 0.005 µM (SNB-75 [26]): 92%

COc1cc(-c2nn(-c3cccc(NC(=O)Nc4cc(C(F)(F)F)cc(C(F)(F)F)c4)c3)cc2-c2ccncc2)ccc1Cl
growth at 50 µM (LOX IMVI [1]): -86%
growth at 50 µM (SF-539 [2]): -78%
growth at 50 µM (MOLT-4 [3]): -11%
growth at 5 µM (T47D): 10%
growth at 5 µM (RXF 393): -51%
growth at 5 µM (ACHN [4]): 2%
growth at 5 µM (IGROV-1 [5]): -42%
growth at 5 µM (SK-MEL-28 [6]): -78%
growth at 5 µM (Malme-3M [7]): -47%
growth at 0.005 µM (SR [8]): 102%
growth at 5 µM (LOX IMVI [9]): -90%
growth at 5 µM (SNB-19): -9%
growth at 5 µM [10]: -70%
growth at 5 µM (SR [11]): -9%
growth at 0.5 µM (PC-3): 33%
growth at 0.5 µM (SNB-75 [12]): 81%
growth at 0.5 µM (HCT-15 [13]): 61%
growth at 0.5 µM (HOP-92): 30%
growth at 0.05 µM [14]: 93%
growth at 0.05 µM (SN12C): 91%
growth at 0.05 µM [15]: 106%
growth at 0.05 µM (OVCAR-5): 87%
growth at 0.05 µM (OVCAR-3 [16]): 109%
growth at 0.05 µM (UACC-257): 98%
growth at 0.05 µM (SF-539 [17]): 90%
growth at 50 µM (TK-10): -86%
growth at 50 µM (OVCAR-3 [18]): -78%
growth at 50 µM (SK-MEL-28 [19]): -87%
growth at 0.05 µM (HCT-15 [20]): 97%
growth at 0.05 µM (NCI-H23): 100%
growth at 0.05 µM (HOP-62): 95%
growth at 0.05 µM (SR [21]): 103%
growth at 0.05 µM (MOLT-4 [22]): 105%
growth at 0.005 µM (MCF7): 92%
growth at 0.005 µM (UO-31): 90%
growth at 0.005 µM (ACHN [23]): 104%
growth at 0.005 µM (IGROV-1 [24]): 109%
growth at 0.005 µM (Malme-3M [25]): 90%
growth at 0.005 µM (SNB-75 [26]): 94%
